± gives the expanded uncertainty stated by the source.
Assay: activity coefficient (dimensionless); of the first substance listed, at infinite dilution; xn = mol fraction of the nth substance listed
Details: 101.33 kPa, Liquid, Chromatography, x1 = 0

| Compound | activity coefficient (308.15 K) | activity coefficient (318.15 K) | activity coefficient (328.15 K) | activity coefficient (338.15 K) | activity coefficient (348.15 K) | activity coefficient (358.15 K) | activity coefficient (368.15 K) | activity coefficient (298.15 K) |
| --- | --- | --- | --- | --- | --- | --- | --- | --- |
| CCCOCCC [dipropyl ether] + C[N+]1(CCCO)CCOCC1.N#C[N-]C#N | 218 ± 15 | 202 ± 14 | 189 ± 13 | 176 ± 12 | 166 ± 11 | 157 ± 11 | 148 ± 10 | – |
| CCO [ethanol] + C[N+]1(CCCO)CCOCC1.N#C[N-]C#N | – | 1.71 ± 0.11 | 1.66 ± 0.11 | 1.61 ± 0.11 | 1.57 ± 0.1 | 1.54 ± 0.1 | 1.51 ± 0.1 | – |
| CCCCCCCC [octane] + C[n+]1ccn(CCCO)c1.N#CN=C=[N-] | 779 ± 54 | 698 ± 48 | 626 ± 43 | 560 ± 39 | 509 ± 35 | 465 ± 32 | – | 881 ± 61 |
| C1CCCC1 [cyclopentane] + C[n+]1ccn(CCCO)c1.N#CN=C=[N-] | 63.7 ± 4.4 | 58.7 ± 4 | 54.5 ± 3.7 | – | – | – | – | 69.3 ± 4.7 |
| Cc1ccccc1 [toluene] + C[n+]1ccn(CCCO)c1.N#CN=C=[N-] | – | 7.75 ± 0.53 | 8 ± 0.55 | 8.27 ± 0.56 | 8.51 ± 0.58 | 8.84 ± 0.6 | 9.09 ± 0.62 | – |
| Cc1ccc(C)cc1 [1,4-dimethylbenzene] + C[n+]1ccn(CCCO)c1.N#CN=C=[N-] | – | 13.5 ± 0.9 | 13.9 ± 1 | 14.3 ± 1 | 14.7 ± 1 | 15.1 ± 1 | 15.5 ± 1.1 | – |
| CCC(=O)CC [pentan-3-one] + C[n+]1ccn(CCCO)c1.N#CN=C=[N-] | – | 5.1 ± 0.35 | 5.29 ± 0.36 | 5.54 ± 0.38 | 5.71 ± 0.39 | 5.95 ± 0.41 | 6.11 ± 0.42 | – |
| c1ccccc1 [benzene] + C[n+]1ccn(CCCO)c1.N#CN=C=[N-] | – | 4.41 ± 0.3 | 4.56 ± 0.31 | 4.74 ± 0.32 | 4.92 ± 0.34 | 5.08 ± 0.35 | 5.22 ± 0.36 | – |
| C1CCCCCCC1 [cyclooctane] + C[N+]1(CCCO)CCOCC1.N#C[N-]C#N | 571 ± 39 | 478 ± 33 | 408 ± 28 | 345 ± 24 | 298 ± 20 | 260 ± 18 | 229 ± 16 | – |
| CCO [ethanol] + C[n+]1ccn(CCCO)c1.N#CN=C=[N-] | – | 1.17 ± 0.07 | 1.17 ± 0.07 | 1.18 ± 0.08 | 1.19 ± 0.08 | 1.2 ± 0.08 | 1.2 ± 0.08 | – |
| C1CCCCCCC1 [cyclooctane] + C[n+]1ccn(CCCO)c1.N#CN=C=[N-] | 198 ± 14 | 181 ± 12 | 165 ± 11 | 153 ± 11 | 143 ± 10 | 137 ± 9 | – | 216 ± 15 |
| CCCCCO [pentan-1-ol] + C[n+]1ccn(CCCO)c1.N#CN=C=[N-] | – | 4.16 ± 0.28 | 4.14 ± 0.28 | 4.1 ± 0.28 | 4.06 ± 0.28 | 4.08 ± 0.28 | 4.05 ± 0.28 | – |
| C#CCCC [1-pentyne] + C[N+]1(CCCO)CCOCC1.N#C[N-]C#N | 24.2 ± 1.7 | 23.6 ± 1.6 | 23.1 ± 1.6 | 22.7 ± 1.6 | 22.4 ± 1.5 | 22 ± 1.5 | 21.7 ± 1.5 | – |
| CCOC(C)(C)C [2-ethoxy-2-methylpropane] + C[N+]1(CCCO)CCOCC1.N#C[N-]C#N | 275 ± 19 | 227 ± 16 | 191 ± 13 | – | – | – | – | 339 ± 23 |
| C=CCCC [1-pentene] + C[n+]1ccn(CCCO)c1.N#CN=C=[N-] | 68.1 ± 4.7 | 63.5 ± 4.3 | 59.3 ± 4.1 | – | – | – | – | 74 ± 5.1 |
| C1CCCCC1 [cyclohexane] + C[N+]1(CCCO)CCOCC1.N#C[N-]C#N | 381 ± 26 | 319 ± 22 | 260 ± 18 | 219 ± 15 | 184 ± 13 | 159 ± 11 | 138 ± 9 | – |
| Cc1ccccc1 [toluene] + C[N+]1(CCCO)CCOCC1.N#C[N-]C#N | – | 13 ± 0.9 | 13.1 ± 0.9 | 13.3 ± 0.9 | 13.4 ± 0.9 | 13.6 ± 0.9 | 13.7 ± 0.9 | – |
| CCC(C)CC [3-methylpentane] + C[n+]1ccn(CCCO)c1.N#CN=C=[N-] | 284 ± 20 | 249 ± 17 | 221 ± 15 | – | – | – | – | 327 ± 22 |
| C=CCCCCC [1-heptene] + C[N+]1(CCCO)CCOCC1.N#C[N-]C#N | 634 ± 44 | 519 ± 36 | 425 ± 29 | 359 ± 25 | – | – | – | 793 ± 55 |
| C#CCCCCC [1-heptyne] + C[N+]1(CCCO)CCOCC1.N#C[N-]C#N | 82.9 ± 5.7 | 79.8 ± 5.5 | 76.7 ± 5.3 | 74 ± 5.1 | 72 ± 4.9 | 69.8 ± 4.8 | 68.1 ± 4.7 | – |
| CC(C)OC(C)C [diisopropyl ether] + C[N+]1(CCCO)CCOCC1.N#C[N-]C#N | 306 ± 21 | 244 ± 17 | – | – | – | – | – | 393 ± 27 |
| CCCC(C)=O [pentan-2-one] + C[N+]1(CCCO)CCOCC1.N#C[N-]C#N | – | 7.85 ± 0.54 | 7.96 ± 0.54 | 8.1 ± 0.55 | 8.23 ± 0.56 | 8.33 ± 0.57 | 8.44 ± 0.58 | – |
| CC(C)(C)O [2-methylpropan-2-ol] + C[n+]1ccn(CCCO)c1.N#CN=C=[N-] | – | 2.58 ± 0.18 | 2.63 ± 0.18 | 2.68 ± 0.18 | 2.71 ± 0.18 | 2.74 ± 0.19 | 2.79 ± 0.19 | – |

— the NIST ThermoML archive (doi:10.1016/j.jct.2017.11.017)
